Where two headings read alike, the source gives them in different places.
Assays:
[1] = system: JRFL; test: Viral infectivity (pseudovirion entry) assay, primary strain JRFL; format: cell-based, HIV-1
Experimental: While HXB2 is a commonly used lab-adapted HIV-1 isolate, it is often more vulnerable to inhibition than primary clinical HIV-1 isolates. […] Bianchi 2005).
All studies were done using the HXB2 strain unless otherwise specified. Viral infectivity was measured essentially as previously described (Hamburger 2005) with several modifications. 8 μg/mL DEAE-Dextran was used as a fusion enhancer in all assays. Media was changed 22-26 h following infection. […] Fits were weighted by the absolute s.e.m. from quadruplicate points with the minimum allowable error set to 1%.

[2] = system: HXB2 strain; test: Single-cycle viral infectivity (viral entry) assay, HXB2 strain
Experimental: All studies were done using the HXB2 strain unless otherwise specified. […] 8 μg/mL DEAE-Dextran was used as a fusion enhancer in all assays. Media was changed 22-26 h following infection. […] Fits were weighted by the absolute s.e.m. from quadruplicate points with the minimum allowable error set to 1%.

[3] = JRFL pseudovirion entry, Table 4, read-out: IC50 (nM) (JRFL)
[4] = read-out: IC50 (nM) (HXB2), HXB2 pseudovirion entry, Table 4
[5] = read-out: IC50, inhibition of viral entry, HXB2
[6] = JRFL, read-out: IC50 against primary isolate JRFL
[7] = read-out: IC50 (μM) (HXB2), HXB2 viral entry, Table 3

Compound	IC50 [1, 3]	IC50 [2, 4]	IC50 [2, 7]	also measured
Cc1ccc(-c2ccc3c(c2)C=C(C(=O)Nc2ccc(C[N+](C)(C)C4CCOCC4)cc2)CCC3)cc1 [TAK779, reference compound]				IC90 ([1]; CCR5 co-receptor inhibitor, JRFL entry assay): 0.1 µM
GACDYPEWQWLCAAGK [PIE7-GK]	15800 nM	389 nM		inhibitory potency compared in words [2]: slightly enhanced potency
GACDYPEWQWLCAAGKK [PIE7-GKK]	19100 nM	382 nM		
HACDYPEWQWLCELGK [PIE15]	1450 nM	66.7 nM		
HPCDYPEWQWLCELGK [PIE12]	578 nM			
HPCDYPEWQWLCKLGK [PIE13]	1470 nM	41.3 nM		
HPCDYPEWQWLCRLGK [PIE14]	1050 nM	33.1 nM		
KGACDYKEWQWLCAA [PIE8]				IC50 [2, 5]: 1680 nM
KGACDYPEWQWLCAA [PIE7]	24000 nM	620 nM	620 nM	reduction in potency against JRFL ([1]; JRFL compared with HXB2): ~40 fold; improvement of potency on addition of TAK779 ([1]; JRFL, addition of 100 nM TAK779): more than 3 fold; IC50 [1, 6]: 24400 nM; more potent than D10-p5 ([2]; HXB2, compared with D10-p5): ~15 fold; inhibitory activity in combination with Fuzeon ([2]; against viral entry, with Fuzeon): at least additive; IC50 [2, 5]: 620 nM
KGACDYPEWQWLCAAGK [K-PIE7-GK]	14800 nM			
KGACDYPEWRWLCAA [PIE2]				IC50 [2, 5]: 1320 nM
KGACDYPEWRWLCAAA [PIE2-AAA]			1440 nM	inhibitory potency compared in words [2]: nearly indistinguishable from the potency of PIE2
KKGACDYPEWRWLCAA [2K-PIE2]			2570 nM	less potent than PIE2 ([2]; HXB2, compared with PIE2): ~2 fold
KKGACELLGWEWAWLCAA [D10-p5, reference compound]			9510 nM	inhibition of infection of cells ([2]; infectivity assay): inhibit infection of cells
KKGACESPEWRWLCAA [2K-PIE1]			2220 nM	
PEG-(KGACDYPEWQWLCAA)2 [PEG-(PIE7)2]		1.9 nM	1.9 nM	IC50 [1, 6]: 2300 nM; inhibitory potency compared in words [2]: comparable to Fuzeon; improvement in IC50 over the corresponding monomer ([2]; HXB2, dimer vs monomer): ~325 fold; IC50 ([2]; read-out: IC50 of dimeric inhibitors, HXB2): 1.9 nM
enfuvirtide [Fuzeon, reference compound]	5 nM	3.7 nM	3.7 nM	

Reference: patent US10512665B2, “Methods and compositions related to inhibition of viral entry” (University of Utah Research Foundation, priority 2007, dated 2019)
